Laboratory results taken from article PMC4980153 (Biochemical pharmacology, 2016).
Where “and” joins values, the source holds several entries; their conditions need not be identical. Equal values may be shown once. Where a name gives a salt, the structure may show the parent alone. Read-outs that look alike come from different tables or passages of the source.

What was measured:
[1] = molecular target: [R127K] BB3* receptor (Homo sapiens, UniProt P32247, H294R/R127K); experiment: 125I-peptide #1 competition binding, CHOP cells
Sequence of [R127K] BB3* receptor (P32247 whole entry R127K/H294R): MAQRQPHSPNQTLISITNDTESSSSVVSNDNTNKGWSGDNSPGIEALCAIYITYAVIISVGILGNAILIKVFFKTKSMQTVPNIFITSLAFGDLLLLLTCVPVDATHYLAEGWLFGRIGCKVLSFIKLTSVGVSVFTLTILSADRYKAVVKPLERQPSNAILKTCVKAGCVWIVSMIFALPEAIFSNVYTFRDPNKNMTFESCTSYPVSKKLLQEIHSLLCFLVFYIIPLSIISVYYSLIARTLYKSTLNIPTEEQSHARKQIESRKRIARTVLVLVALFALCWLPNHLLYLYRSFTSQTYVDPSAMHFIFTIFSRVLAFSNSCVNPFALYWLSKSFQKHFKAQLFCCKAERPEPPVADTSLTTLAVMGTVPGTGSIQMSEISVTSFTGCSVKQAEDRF

[2] = molecular target: (e1-BB2) BB3* loss-of-affinity chimera (Homo sapiens, UniProt P32247, E111D/G112R/H107K/H294R/T106S); experiment: 125I-peptide #1 competition binding, CHOP cells; design: species or system mouse; settings: EC1 of BB3* replaced by EC1 of BB2, vs BB3*
Sequence of (e1-BB2) BB3* loss-of-affinity chimera (P32247 whole entry T106S/H107K/E111D/G112R/H294R): as the sequence (P32247 whole entry R127K/H294R) above, with T106S, H107K, E111D, G112R, K127R counted along it

[3] = molecular target: [H107K, G112R] wild type BB3 receptor (Homo sapiens, UniProt P32247, G112R/H107K); experiment: 125I-peptide #1 competition binding, CHOP cells
Sequence of [H107K, G112R] wild type BB3 receptor (P32247 whole entry H107K/G112R): as the sequence (P32247 whole entry R127K/H294R) above, with H107K, G112R, K127R, R294H counted along it

[4] = molecular target: [S124P] BB3* receptor (Homo sapiens, UniProt P32247, H294R/S124P); experiment: 125I-peptide #1 competition binding, CHOP cells
Sequence of [S124P] BB3* receptor (P32247 whole entry S124P/H294R): as the sequence (P32247 whole entry R127K/H294R) above, with S124P, K127R counted along it

[5] = test system: BB3 and BB3* receptors and their mutants
[6] = molecular target: BB3 and BB3* receptors and their mutants (Homo sapiens, UniProt P32247, H294R/R127K); settings: [R127K], background not stated (discussion)
Sequence of BB3 and BB3* receptors and their mutants (Homo sapiens, UniProt P32247, H294R/R127K) (P32247 whole entry R127K/H294R): as the sequence (P32247 whole entry R127K/H294R) above

[7] = molecular target: BB3 and BB3* receptors and their mutants (Homo sapiens, UniProt P32247, H294R/R127H); settings: [R127H], background not stated (discussion)
Sequence of BB3 and BB3* receptors and their mutants (Homo sapiens, UniProt P32247, H294R/R127H) (P32247 whole entry R127H/H294R): as the sequence (P32247 whole entry R127K/H294R) above, with K127H counted along it

[8] = molecular target: [H107K] wild type BB3 receptor (Homo sapiens, UniProt P32247, H107K); experiment: 125I-peptide #1 competition binding, CHOP cells
Sequence of [H107K] wild type BB3 receptor (P32247 whole entry H107K): as the sequence (P32247 whole entry R127K/H294R) above, with H107K, K127R, R294H counted along it

[9] = molecular target: [V101A] wild type BB3 receptor (Homo sapiens, UniProt P32247, V101A); experiment: 125I-peptide #1 competition binding, CHOP cells
Sequence of [V101A] wild type BB3 receptor (P32247 whole entry V101A): as the sequence (P32247 whole entry R127K/H294R) above, with V101A, K127R, R294H counted along it

[10] = molecular target: [R127N] BB3* receptor (Homo sapiens, UniProt P32247, H294R/R127N); experiment: 125I-peptide #1 competition binding, CHOP cells
Sequence of [R127N] BB3* receptor (P32247 whole entry R127N/H294R): as the sequence (P32247 whole entry R127K/H294R) above, with K127N counted along it

[11] = molecular target: [H107F] wild type BB3 receptor (Homo sapiens, UniProt P32247, H107F); experiment: 125I-peptide #1 competition binding, CHOP cells
Sequence of [H107F] wild type BB3 receptor (P32247 whole entry H107F): as the sequence (P32247 whole entry R127K/H294R) above, with H107F, K127R, R294H counted along it

[12] = molecular target: [R127H] BB3* receptor (Homo sapiens, UniProt P32247, H294R/R127H); experiment: 125I-peptide #1 competition binding, CHOP cells
Sequence of [R127H] BB3* receptor (P32247 whole entry R127H/H294R): as the sequence (P32247 whole entry R127K/H294R) above, with K127H counted along it

[13] = test system: (e1-BB3) BB2 gain-of-affinity chimera; experiment: 125I-peptide #1 competition binding, CHOP cells; design: species or system human, mouse; settings: EC1 of BB2 replaced by EC1 of BB3, vs wild type BB2
[14] = molecular target: [H107K, G112R] BB3* receptor (Homo sapiens, UniProt P32247, G112R/H107K/H294R); experiment: 125I-peptide #1 competition binding, CHOP cells
Sequence of [H107K, G112R] BB3* receptor (P32247 whole entry H107K/G112R/H294R): as the sequence (P32247 whole entry R127K/H294R) above, with H107K, G112R, K127R counted along it

[15] = molecular target: [H107Y] wild type BB3 receptor (Homo sapiens, UniProt P32247, H107Y); experiment: 125I-peptide #1 competition binding, CHOP cells
Sequence of [H107Y] wild type BB3 receptor (P32247 whole entry H107Y): as the sequence (P32247 whole entry R127K/H294R) above, with H107Y, K127R, R294H counted along it

[16] = molecular target: [R127H] wild type BB3 receptor (Homo sapiens, UniProt P32247, R127H); experiment: 125I-peptide #1 competition binding, CHOP cells
Sequence of [R127H] wild type BB3 receptor (P32247 whole entry R127H): as the sequence (P32247 whole entry R127K/H294R) above, with K127H, R294H counted along it

[17] = molecular target: (e2-BB2) BB3* loss-of-affinity chimera (Homo sapiens, UniProt P32247, D193V/E201I/E215K/H294R/K196T/K210N/K211E/L213H/L219M/L220A/M198Q/N187D/N195D/P194K/Q214P/R192H/S205P/T190P/T204A/V188L/V208H/Y189H); experiment: 125I-peptide #1 competition binding, CHOP cells; design: species or system mouse; settings: EC2 of BB3* replaced by EC2 of BB2, vs BB3*
Sequence of (e2-BB2) BB3* loss-of-affinity chimera (P32247 1-399 with the stated changes): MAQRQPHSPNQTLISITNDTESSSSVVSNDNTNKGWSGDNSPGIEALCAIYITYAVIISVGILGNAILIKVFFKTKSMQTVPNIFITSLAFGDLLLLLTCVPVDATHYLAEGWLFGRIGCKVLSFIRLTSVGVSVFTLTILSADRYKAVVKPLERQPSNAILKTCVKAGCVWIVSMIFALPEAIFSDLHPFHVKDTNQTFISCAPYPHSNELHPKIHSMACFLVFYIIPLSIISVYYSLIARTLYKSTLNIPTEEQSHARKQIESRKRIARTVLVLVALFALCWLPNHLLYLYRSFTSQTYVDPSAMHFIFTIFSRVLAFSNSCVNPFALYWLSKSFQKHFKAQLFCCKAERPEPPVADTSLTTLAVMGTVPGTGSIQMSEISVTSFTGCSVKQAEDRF

[18] = molecular target: [H107K] BB3* receptor (Homo sapiens, UniProt P32247, H107K/H294R); experiment: 125I-peptide #1 competition binding, CHOP cells
Sequence of [H107K] BB3* receptor (P32247 whole entry H107K/H294R): as the sequence (P32247 whole entry R127K/H294R) above, with H107K, K127R counted along it

[19] = molecular target: [R127K] wild type BB3 receptor (Homo sapiens, UniProt P32247, R127K); experiment: 125I-peptide #1 competition binding, CHOP cells
Sequence of [R127K] wild type BB3 receptor (P32247 whole entry R127K): as the sequence (P32247 whole entry R127K/H294R) above, with R294H counted along it

[20] = molecular target: [L123I] BB3* receptor (Homo sapiens, UniProt P32247, H294R/L123I); experiment: 125I-peptide #1 competition binding, CHOP cells
Sequence of [L123I] BB3* receptor (P32247 whole entry L123I/H294R): as the sequence (P32247 whole entry R127K/H294R) above, with L123I, K127R counted along it

[21] = molecular target: [H107D] BB3* receptor (Homo sapiens, UniProt P32247, H107D/H294R); experiment: 125I-peptide #1 competition binding, CHOP cells
Sequence of [H107D] BB3* receptor (P32247 whole entry H107D/H294R): as the sequence (P32247 whole entry R127K/H294R) above, with H107D, K127R counted along it

[22] = molecular target: [R127N] wild type BB3 receptor (Homo sapiens, UniProt P32247, R127N); experiment: 125I-peptide #1 competition binding, CHOP cells
Sequence of [R127N] wild type BB3 receptor (P32247 whole entry R127N): as the sequence (P32247 whole entry R127K/H294R) above, with K127N, R294H counted along it

decrease in affinity [1]: 45 fold
decrease in affinity [2]: 377 fold and > 377 fold and > 400 fold
decrease in affinity [3]: 68 fold
decrease in affinity [4]: 54 fold
decrease in affinity [6]: 45 fold
decrease in affinity [7]: > 192 fold
decrease in affinity [8]: 35 fold
decrease in affinity [9]: 179 fold
decrease in affinity [10]: 78 fold
decrease in affinity [11]: 4 fold
decrease in affinity [12]: 192 fold
decrease in affinity [14]: 250 fold
decrease in affinity [15]: 13 fold
decrease in affinity [16]: 175 fold
decrease in affinity [17]: 23 fold
decrease in affinity [18]: 54 fold
decrease in affinity [19]: > 526 fold
decrease in affinity [20]: 4 fold
decrease in affinity [21]: > 192 fold
decrease in affinity [22]: 12 fold
Structure (SMILES): CC(C)C[C@H](NC(=O)C[C@H](O)[C@H](CC1CCCCC1)NC(=O)[C@H](Cc1c[nH]cn1)NC(=O)[C@H](Cc1ccccc1)NC(=O)OC(C)(C)C)C(=O)NCc1cccc([N+](C)(C)C)c1 [Bantag-1, Boc-Phe-His-4-amino-5-cyclohexyl-2,4,5-trideoxypentonyl-Leu- (3-dimethylamino) benzylamide N-methylammonium trifluoroacetate]
decrease in affinity ([5]; E111D or G112R BB3 receptor mutants): 1 to 2.5 fold
loss in affinity ([5]; [G112R] in wild type and BB3* receptor): 2 fold and 2–3 fold
decrease in affinity ([5]; [H107F] and [H107Y] in BB3*): 7–16 fold
decrease in affinity ([5]; [H107K, E111D, G112R] in wild type and BB3*): 500 fold and > 500 fold
decrease in affinity ([5]; [H107K], BB3 and BB3* not separated): 60 fold and 35–54 fold and 50 fold
decrease in affinity ([5]; [H107N] in either BB3 or BB3*): > 58 fold
decrease in affinity ([5]; [H107W], background not separated): > 190 times
decrease in affinity ([5]; [H107Y] and [H107F] in either BB3 or BB3*): 4–16 fold and 5–17 fold
decrease in affinity ([5]; [L123I, R127Q] in wild type and BB3*): > 2,000 fold
decrease in affinity ([5]; [R127E] in wild type and BB3*): 188 fold and > 200 fold
decrease in affinity ([5]; [R127Q], [L123I] and [S124P] in wild type BB3): 233–536 fold
decrease in affinity ([5]; [R127Q], background not separated): 400 fold and > 390 fold and > 400 fold
Ki ([5]; read-out: Ki (range given), [G112R] in wild type and BB3* receptor): 11.6 to 16 nM
decrease in affinity ([5]; single EC1 amino acid substitutions alone): 1.4–54 fold
increase in affinity [13]: 5 fold
